# Tests used:
# Format in all cases: functional
# SNB-19 [1] = assay: Growth inhibition of human SNB-19 cells assessed as cell growth at 100 uM incubated for 48 hrs by sulforhodamine B assay relative to control; details: read-out: Activity
# SK-MEL-5 = assay: Growth inhibition of human SK-MEL-5 cells assessed as cell growth at 100 uM incubated for 48 hrs by sulforhodamine B assay relative to control; details: read-out: Activity
# UACC-257 = assay: Growth inhibition of human UACC-257 cells assessed as cell growth at 0.01 uM incubated for 48 hrs by sulforhodamine B assay relative to control; details: read-out: Activity
# MDA-MB-435 = assay: Growth inhibition of human MDA-MB-435 cells incubated for 48 hrs by sulforhodamine B assay
# TK-10 = assay: Growth inhibition of human TK-10 cells assessed as cell growth at 0.01 uM incubated for 48 hrs by sulforhodamine B assay relative to control; details: read-out: Activity
# RXF 393 = assay: Growth inhibition of human RXF 393 cells assessed as cell growth at 100 uM incubated for 48 hrs by sulforhodamine B assay relative to control; details: read-out: Activity
# COLO 205 = assay: Growth inhibition of human COLO 205 cells assessed as cell growth at 0.1 uM incubated for 48 hrs by sulforhodamine B assay relative to control; details: read-out: Activity
# HT-29 = assay: Growth inhibition of human HT-29 cells assessed as cell growth at 0.01 uM incubated for 48 hrs by sulforhodamine B assay relative to control; details: read-out: Activity
# KM12 = assay: Growth inhibition of human KM12 cells assessed as cell growth at 100 uM incubated for 48 hrs by sulforhodamine B assay relative to control; details: read-out: Activity
# MCF7 = assay: Growth inhibition of human MCF7 cells assessed as cell growth at 0.01 uM incubated for 48 hrs by sulforhodamine B assay relative to control; details: read-out: Activity
# UACC-62 [2] = assay: Growth inhibition of human UACC-62 cells assessed as cell growth at 1 uM incubated for 48 hrs by sulforhodamine B assay relative to control; details: read-out: Activity
# SF-268 = assay: Growth inhibition of human SF-268 cells assessed as cell growth at 0.01 uM incubated for 48 hrs by sulforhodamine B assay relative to control; details: read-out: Activity
# Hs-578T [3] = assay: Growth inhibition of human Hs-578T cells assessed as cell growth at 0.01 uM incubated for 48 hrs by sulforhodamine B assay relative to control; details: read-out: Activity
# SK-MEL-28 [4] = assay: Growth inhibition of human SK-MEL-28 cells assessed as cell growth at 0.01 uM incubated for 48 hrs by sulforhodamine B assay relative to control; details: read-out: Activity
# NCI-H460 [5] = assay: Growth inhibition of human NCI-H460 cells incubated for 48 hrs by sulforhodamine B assay
# SNB-19 [6] = assay: Growth inhibition of human SNB-19 cells assessed as cell growth at 0.1 uM incubated for 48 hrs by sulforhodamine B assay relative to control; details: read-out: Activity
# SK-MEL-28 [7] = assay: Growth inhibition of human SK-MEL-28 cells assessed as cell growth at 0.1 uM incubated for 48 hrs by sulforhodamine B assay relative to control; details: read-out: Activity
# NCI-H23 = assay: Growth inhibition of human NCI-H23 cells assessed as cell growth at 0.01 uM incubated for 48 hrs by sulforhodamine B assay relative to control; details: read-out: Activity
# NCI-H226 = assay: Growth inhibition of human NCI-H226 cells assessed as cell growth at 0.01 uM incubated for 48 hrs by sulforhodamine B assay relative to control; details: read-out: Activity
# NCI-H460 [8] = assay: Growth inhibition of human NCI-H460 cells assessed as cell growth at 100 uM incubated for 48 hrs by sulforhodamine B assay relative to control; details: read-out: Activity
# HCT-116 = assay: Growth inhibition of human HCT-116 cells assessed as cell growth at 1 uM incubated for 48 hrs by sulforhodamine B assay relative to control; details: read-out: Activity
# SF-295 = assay: Growth inhibition of human SF-295 cells assessed as cell growth at 0.1 uM incubated for 48 hrs by sulforhodamine B assay relative to control; details: read-out: Activity
# NCI-H322M [9] = assay: Growth inhibition of human NCI-H322M cells assessed as cell growth at 0.1 uM incubated for 48 hrs by sulforhodamine B assay relative to control; details: read-out: Activity
# NCI/ADR-RES = assay: Growth inhibition of human NCI/ADR-RES cells assessed as cell growth at 1 uM incubated for 48 hrs by sulforhodamine B assay relative to control; details: read-out: Activity
# DU-145 = assay: Growth inhibition of human DU-145 cells incubated for 48 hrs by sulforhodamine B assay
# SNB-19 [10] = assay: Growth inhibition of human SNB-19 cells assessed as cell growth at 1 uM incubated for 48 hrs by sulforhodamine B assay relative to control; details: read-out: Activity
# NCI-H322M [11] = assay: Growth inhibition of human NCI-H322M cells assessed as cell growth at 1 uM incubated for 48 hrs by sulforhodamine B assay relative to control; details: read-out: Activity
# Hs-578T [12] = assay: Growth inhibition of human Hs-578T cells incubated for 48 hrs by sulforhodamine B assay
# IGROV-1 = assay: Growth inhibition of human IGROV-1 cells assessed as cell growth at 0.1 uM incubated for 48 hrs by sulforhodamine B assay relative to control; details: read-out: Activity
# ACHN = assay: Growth inhibition of human ACHN cells incubated for 48 hrs by sulforhodamine B assay
# HCC 2998 = assay: Growth inhibition of human HCC 2998 cells incubated for 48 hrs by sulforhodamine B assay
# A498 = assay: Growth inhibition of human A498 cells assessed as cell growth at 0.01 uM incubated for 48 hrs by sulforhodamine B assay relative to control; details: read-out: Activity
# UACC-62 [13] = assay: Growth inhibition of human UACC-62 cells assessed as cell growth at 0.01 uM incubated for 48 hrs by sulforhodamine B assay relative to control; details: read-out: Activity
# Hs-578T [14] = assay: Growth inhibition of human Hs-578T cells assessed as cell growth at 1 uM incubated for 48 hrs by sulforhodamine B assay relative to control; details: read-out: Activity
# MDA-MB-468 = assay: Growth inhibition of human MDA-MB-468 cells assessed as cell growth at 100 uM incubated for 48 hrs by sulforhodamine B assay relative to control; details: read-out: Activity
# [15] = read-out: LC50 (the source's name)
# [16] = read-out: pLC50 (the source's name) (converted)
compound,measurement,setting,value
CC(=O)Nc1cc(CCl)cc(NC(=O)c2ccc(C(=O)Nc3cccc(NC(=O)CCCN(C)C)c3)cc2)c1,growth at 100 µM,SNB-19 [1],117%
same,growth at 100 µM,SK-MEL-5,75%
same,growth at 0.01 µM,UACC-257,97%
same,GI50,MDA-MB-435; read-out: GI50,> 100 µM
same,LC50 (50% lethal concentration),MDA-MB-435; read-out: LC50,> 100 µM
same,TGI,MDA-MB-435; read-out: TGI,> 100 µM
same,GI50,MDA-MB-435; read-out: pGI50 (converted),> 100 µM
same,LC50 (50% lethal concentration),MDA-MB-435; read-out: pLC50 (converted),> 100 µM
same,TGI,MDA-MB-435; read-out: pTGI,> 100 µM
same,growth at 0.01 µM,TK-10,99%
same,growth at 100 µM,RXF 393,96%
same,growth at 0.1 µM,COLO 205,108%
same,growth at 0.01 µM,HT-29,103%
same,growth at 100 µM,KM12,88%
same,growth at 0.01 µM,MCF7,88%
same,growth at 1 µM,UACC-62 [2],102%
same,growth at 0.01 µM,SF-268,100%
same,growth at 0.01 µM,Hs-578T [3],115%
same,growth at 0.01 µM,SK-MEL-28 [4],98%
same,GI50,NCI-H460 [5]; read-out: GI50,> 100 µM
same,CC50,NCI-H460 [5]; [15],> 100 µM
same,TGI,NCI-H460 [5]; read-out: TGI,> 100 µM
same,GI50,NCI-H460 [5]; read-out: pGI50 (converted),> 100 µM
same,CC50,NCI-H460 [5]; [16],> 100 µM
same,TGI,NCI-H460 [5]; read-out: pTGI,> 100 µM
same,growth at 0.1 µM,SNB-19 [6],104%
same,growth at 0.1 µM,SK-MEL-28 [7],91%
same,growth at 0.01 µM,NCI-H23,96%
same,growth at 0.01 µM,NCI-H226,95%
same,growth at 100 µM,NCI-H460 [8],99%
same,growth at 1 µM,HCT-116,107%
same,growth at 0.1 µM,SF-295,74%
same,growth at 0.1 µM,NCI-H322M [9],103%
same,growth at 1 µM,NCI/ADR-RES,95%
same,GI50,DU-145; read-out: GI50,> 100 µM
same,CC50,DU-145; [15],> 100 µM
same,TGI,DU-145; read-out: TGI,> 100 µM
same,GI50,DU-145; read-out: pGI50 (converted),> 100 µM
same,CC50,DU-145; [16],> 100 µM
same,TGI,DU-145; read-out: pTGI,> 100 µM
same,growth at 1 µM,SNB-19 [10],104%
same,growth at 1 µM,NCI-H322M [11],100%
same,GI50,Hs-578T [12]; read-out: GI50,> 100 µM
same,CC50,Hs-578T [12]; [15],> 100 µM
same,TGI,Hs-578T [12]; read-out: TGI,> 100 µM
same,GI50,Hs-578T [12]; read-out: pGI50 (converted),> 100 µM
same,CC50,Hs-578T [12]; [16],> 100 µM
same,TGI,Hs-578T [12]; read-out: pTGI,> 100 µM
same,growth at 0.1 µM,IGROV-1,113%
same,GI50,ACHN; read-out: GI50,> 100 µM
same,CC50,ACHN; [15],> 100 µM
same,TGI,ACHN; read-out: TGI,> 100 µM
same,GI50,ACHN; read-out: pGI50 (converted),> 100 µM
same,CC50,ACHN; [16],> 100 µM
same,TGI,ACHN; read-out: pTGI,> 100 µM
same,GI50,HCC 2998; read-out: GI50,> 100 µM
same,CC50,HCC 2998; [15],> 100 µM
same,TGI,HCC 2998; read-out: TGI,> 100 µM
same,GI50,HCC 2998; read-out: pGI50 (converted),> 100 µM
same,CC50,HCC 2998; [16],> 100 µM
same,TGI,HCC 2998; read-out: pTGI,> 100 µM
same,growth at 0.01 µM,A498,67%
same,growth at 0.01 µM,UACC-62 [13],100%
same,growth at 1 µM,Hs-578T [14],109%
same,growth at 100 µM,MDA-MB-468,51%

# Reference: ChEMBL document CHEMBL4715697, “Synthesis and biological activity of benzamide DNA minor groove binders” (2016)
